Non-standard residues stand in square brackets, D forms with d. Residues, ends and D or L forms follow the SMILES beside them. pGlu = O=C1CC[C@@H](C(=O)O)N1
Assays:
Format in all cases: cell-based
apTKRPR-A [1] = target: T1, apTKRPR-A (Aplysia californica, UniProt A0AAU7SSZ1); experiment: Cell surface expression by ELISA after ligand exposure, FLAG-apTKRPR-A; conditions: 10 µM, different durations, compared with 0 min, n = 4
T1 sequence (A0AAU7SSZ1 1-398): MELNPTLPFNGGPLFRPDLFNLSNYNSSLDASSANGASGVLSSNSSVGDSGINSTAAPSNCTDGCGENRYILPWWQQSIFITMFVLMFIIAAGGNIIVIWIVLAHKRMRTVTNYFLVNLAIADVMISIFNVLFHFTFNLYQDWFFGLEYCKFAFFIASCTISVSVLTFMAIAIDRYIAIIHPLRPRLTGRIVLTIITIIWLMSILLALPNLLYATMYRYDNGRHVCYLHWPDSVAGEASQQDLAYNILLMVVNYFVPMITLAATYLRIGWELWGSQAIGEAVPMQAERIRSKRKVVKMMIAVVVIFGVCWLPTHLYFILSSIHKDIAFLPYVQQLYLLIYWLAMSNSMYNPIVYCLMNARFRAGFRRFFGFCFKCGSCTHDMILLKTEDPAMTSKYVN
Description: (§1) Cell surface expression determination of apTKRPRs and mutant receptors, all with FLAG tags, was performed using a procedure modified from previous work ([64], [122], [123], [124]). Specifically, CHO-K1 cells were cultured in F-12K medium (Gibco, 21127-022) with 10% FBS (Genial, G11-70500) at 37 °C in a humidified incubator containing 5% CO2. When the cells were grown to 70 to 90% confluence, transfection experiments were performed (see “Cell culture and transfection” section). After 24 h, transfected cells were plated in 96-well white clear-bottom cell culture plates (Corning, 3610) at a density of 20,000 cells in 100 μl per well and incubated overnight. The following day, culture media was aspirated and cells were washed twice with 200 μl of 1× PBS (Procell, PB180327). Then, 100 μl of 1× PBS containing 5% (w/v) BSA was added to each well and incubated at room temperature. After 30 min, 100 μl of 1:10,000 anti-FLAG M2-horseradish peroxidase conjugate (Sigma-Aldrich, Cat A8592) was added to each well and incubated for 30 min at 37 °C. Cells were washed twice with 200 μl of 1× PBS and then incubated with 200 μl of TMB Chromogen Solution (Sangon Biotech, E661007) for 30 min at 37 °C in the dark. Finally, 50 μl of ELISA Stopping Solution (Sangon Biotech, E661006) was added to each well to stop the reaction. The absorbance at 450 nm was measured using a Tecan Spark microplate reader. […]

apTKRPR-B = target: T2, apTKRPR-B (Aplysia californica, UniProt A0AAU7STS1); experiment: Cell surface expression by ELISA after ligand exposure, FLAG-apTKRPR-B; conditions: 10 µM, different durations, compared with 0 min, n = 4
T2 sequence (A0AAU7STS1 1-447): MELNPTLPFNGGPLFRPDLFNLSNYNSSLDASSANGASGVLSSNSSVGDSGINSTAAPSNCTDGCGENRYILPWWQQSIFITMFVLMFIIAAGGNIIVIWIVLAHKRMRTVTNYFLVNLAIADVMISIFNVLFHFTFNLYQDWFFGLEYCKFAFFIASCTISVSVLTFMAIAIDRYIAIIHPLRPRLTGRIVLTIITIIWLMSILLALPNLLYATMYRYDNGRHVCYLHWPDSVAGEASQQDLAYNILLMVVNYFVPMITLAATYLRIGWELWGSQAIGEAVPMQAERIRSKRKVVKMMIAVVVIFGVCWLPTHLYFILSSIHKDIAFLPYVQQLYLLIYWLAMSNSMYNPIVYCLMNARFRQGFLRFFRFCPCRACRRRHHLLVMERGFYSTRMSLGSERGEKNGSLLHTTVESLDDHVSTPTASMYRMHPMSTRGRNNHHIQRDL
Description: as §1

apTKRPR-A [2] = target: T1, apTKRPR-A; experiment: IP1 accumulation assay, CHO-K1 cells transiently expressing apTKRPR-A
Description: To express putative Aplysia receptors transiently in CHO-K1 cells, the cDNAs were subcloned into the pcDNA3.1(+) or pcDNA3.1(+)-FLAG (for ELISA experiments only, see “Cell surface expression analysis by ELISA” section) expression vector. On the day before transfection, the CHO-K1 cells were passaged into 60 mm diameter tissue culture–treated dishes, and the transfection experiments were performed when the cells were grown to 70 to 90% confluence. CHO-K1 cells were transfected with the cDNA plasmid constructs using Turbofect Transfection reagent (Thermo Fisher Scientific, R0531), following the manufacturer’s instructions. […] The DNA/TurboFect mixture dropwise was then added to the dish, and the cells were incubated at 37 °C in a humidified incubator containing 5% CO2 overnight.
On the third day, the activation of the putative receptors was detected by monitoring intracellular IP1 concentration using an IP-One Gq kit (Cisbio, 62IPAPEB) in Tecan Spark. Except for using 0.5x reagent, all other procedures were performed following the manufacturer’s instructions. IP1 accumulation assay measures the accumulation of IP1, which is hydrolyzed from the second messenger, and inositol triphosphate. Inositol triphosphate is generated by the Gαq pathway when a GPCR is activated by an appropriate ligand.

CC(C)C[C@H](NC(=O)[C@H](Cc1c[nH]cn1)NC(=O)[C@@H]1CCCN1C(=O)[C@@H]1CCC(=O)N1)C(=O)NCC(=O)N[C@@H](Cc1ccccc1)C(=O)N[C@@H](Cc1c[nH]cn1)C(=O)NCC(=O)N[C@@H](CO)C(=O)N[C@@H](CCCNC(=N)N)C(N)=O [apTKRP-2b] ([pGlu]PHLGFHGSR-NH2)
cell surface receptor expression of apTKRPR-A after agonist exposure (apTKRPR-A [1]): significant loss of receptor expression | cell surface receptor expression of apTKRPR-B after agonist exposure (apTKRPR-B): significant loss of receptor expression | EC50 (apTKRPR-A [2]): 37.2 nM | IP1 response of apTKRPR-A in screening (apTKRPR-A [2]; 10^-5 M compared with 10^-10 M (control), n = 3, no Gαq cotransfection): responded

From publication PMC11365428 (The Journal of Biological Chemistry, 2024)
